In US20070105810A1, “THERAPEUTICS” (priority 2003, published 2007):
Entries after “also recorded” stand apart in the source; their conditions may differ. Where two headings read alike, the source gives them in different places.

Columns and labels:
[1] = test system: myelin-basic protein (MBP) specific, CD4-positive rat T cell blasts; assay: In vitro toxicity assay on T cell blasts; assay type: cell-based
Procedure: Resting MBP-GFP Tcells were plated in 96-wells (5×10^4/well). Substances to test were added at different concentration to the cells and incubated for 1 h.
Cells stimulated by the addition of thymocytes (1.5×10^6/well) and MBP.
Absolute numbers of MBP-GFP T cells were determined by quantitative cytofluorometrical analysis after 24 and 48 hours (FACS-Calibur BektonDickinson).
Activated MBP-GFP Tcells were also incubated with different concentration of substances to test and absolute numbers of MBP-GFP T cells were determined by quantitative cytofluorometrical analysis after 24 and 48 hours (FACS-Calibur BektonDickinson).
(§1) Cells were stimulated in presence of MBP-pulsed irradiated APCs and increasing concentrations of BZ194. After 48 h cells were collected for cytofluorometric cell count A and RNA extraction was performed for quantitative PCR analysis (IL2) B. Effect of BZ194 on pre-activated T cell blasts C. Amplification of MBP-specific T cells which had been incubated before in the presence of DMSO or 0.5 mM or 1 mM BZ194 D.

[2] = test system: myelin-basic protein (MBP) specific, CD4-positive rat T cells; assay: In vitro proliferation assay (rat encephalitogenic T cells); assay type: cell-based; settings: for proliferation: T-lymphocytes, summary statement; for IC50: Rattus norvegicus, CD4 positive, 3H-thymidine incorporation
Procedure: A more downstream event of T cell activation was analyzed in myelin-basic protein (MBP) specific, CD4-positive rat T cells. These cells can be driven into proliferation by MBP presented by irradiated thymocytes or by the mitogen concanavalin A (ConA).
Resting MBP-GFP T cells were plated in 96-wells (5×10^4 well) and stimulated by the addition of thymocytes (1.5×10^6/well) and MBP ([…]) or ConA (1.25 μg/ml), respectively.
After 2 days 3H-thymidine (Amersham Biosciences) was added to the activated cells (final concentration 4 μCi/ml); after 16 h of incubation 3H-thymidine incorporation was measured (Matrix 9600-Direct Beta Counter Packad).
as §1
TMBP-GFP cells were co-cultured for 48 h in 96well plates (in DMEM 1% rat serum) with APCs in presence of specific antigen ([…]) or without. Amplification of TMBP-GFP cells was measured by cytofluorometry as described (Kawakami et al. 2005, J.I.). Their numbers were determined in relation to a known absolute number of added phycoerythrin-labeled plastic beads (Becton-Dickinson). The amplification rate was calculated in relation to the GFP+T cell numbers at day 0. Alternatively, [^3H]dT (2 Ci/mmol; Amersham-Buchler) incorporation was used to evaluate proliferation. The radioactive label present in the different cultures was determined as described (Flügel et al., 2001, Immunity)

[3] = test system: NAADP/Ca2+ signalling in Jurkat T cells; assay: Ca2+ signalling evoked by microinjection of NAADP in Jurkat T cells; assay type: cell-based, human; settings: for NAADP-mediated Ca2+ signalling: T-lymphocytes, summary statement
Procedure: NAADP (final concentration 100 nM), IP3 (final concentration 4 μM), and BZ52 (final concentration 1 mM) were injected into single Jurkat T cells while [Ca^2+]i was analyzed by Ca^2+ imaging. Data are presented as mean±SEM (n=4 to 13).
Effect of NAADP-microinjection and co-injection with BZ52 (1 mM) on [Ca^2+]i in human Jurkat T-Lymphocytes. Upper panel: microinjection of 100 nM NAADP (arrow), middle panel: microinjection of the vehicle buffer (arrow), lower panel: co-microinjection of 100 nM NAADP plus 1 mM BZ52 (arrow).
The Jurkat T cells were loaded with fura-2/AM and kept in the dark at room temperature until use. Glass coverslips were coated first with BSA (5 mg/ml) and subsequently with poly-L-lysine (0.1 mg/ml). Small chamber slides consisting of a rubber O-ring were sealed on thin (0.1 mm) glass coverslips by silicon grease. Then, 60 μl buffer A containing 140 mM NaCl, 5 mM KCl, 1 mM MgSO4, 1 mM CaCl2, 1 mM NaH2PO4, 5.5 mM glucose, and 20 mM HEPES (pH 7.4), and 40 μl cell suspension (2*10^6 cells/ml) suspended in the same buffer were added into the small chamber and the coverslip was mounted on the stage of a fluorescence microscope (Leica DM IRE2).
Ratiometric Ca^2+ imaging was performed as described earlier. In brief, we used an Improvision imaging system (Heidelberg, Germany) built around the Leica microscope at 100-fold magnification. Illumination at 340 and 380 nm was carried out using a monochromator system (Polychromator IV, TILL Photonics, Graefelfing, Germany). Images were taken with a gray-scale CCD camera (type C4742-95-12ER; Hamamatsu, Enfield, United Kingdom; operated in 8-bit mode). The optimal relation of spatial to temporal resolution for the ratiometric measurements was obtained using a spatial resolution of 512×640 pixel, resulting in a pixel length of 129 nm/pixel (at 100-fold magnification). […]
Ratiometric Ca^2+ imaging—The cells were loaded with fura-2/AM and kept in the dark at room temperature until use. […] The coverslip with cells slightly attached to the BSA/poly-L-lysine coating was mounted on the stage of a fluorescence microscope (Leica DM IRE2). […]

With `CCCCCCCCNC(=O)C[n+]1cccc(C(=O)O)c1.[Br-]` [BZ194, 3-Carboxy-1-Octylcarbamoylmethyl-Pyridinium] the “amplification of pre-activated MBP-specific T cells” value ([1]; in the presence of BZ194) was “not influenced”, the T cell proliferation ([2]; MBP-pulsed irradiated APCs, increasing concentrations of BZ194, 48 h) was “anti-proliferative effect; also recorded: dose dependently suppressed” and the proliferation [2] was “efficiently inhibited”. For the same compound, the “proliferative response towards MBP challenge” value ([2]; after foregoing incubation with 0.5 mM or 1 mM BZ194) was “did not block”, the “viability and reactivity of TMBP-GFP cells” value ([2]; cells isolated ex vivo from BZ194-treated animals, challenge with MBP (not shown)) was “remained viable and fully reactive” and the “NAADP-mediated Ca2+ signalling” value [3] was “efficiently inhibited”.
In the case of `CCCCN(CCCC)C(=O)C[n+]1cccc(C(=O)O)c1` [BZ52, 3-Carboxy-1-dibutylcarbamoylmethyl-pyridinium], the “number of T cell blasts” value ([1]; BZ52 up to 500 μM, 48 h, non-proliferating cells) is reported as “did not much reduce”, the IC50 ([2]; light or radiation study, MBP presented by irradiated thymocytes, read-out: IC50, MBP mediated proliferation) is reported as roughly 500 µM and the IC50 ([2]; ConA 1.25 μg/ml, read-out: IC50, ConA mediated proliferation) is reported as roughly 100 µM. The proliferation [2] was “efficiently inhibited”, the “NAADP-mediated Ca2+ signalling” value [3] was “efficiently inhibited” and the “effect of NAADP on Ca2+ signal (peak and plateau)” value ([3]; co-injection of BZ52 1 mM with NAADP 100 nM) was “almost completely antagonized”.
